Laboratory results reported in publication doi:10.1101/2025.05.21.654962v1 (biorxiv, 2025).
Blank lines part the entries; values can stand above or below the molecule they belong to.

Assays:
[1] = molecular target: T1, NgUPPS (undecaprenyl diphosphate synthase) (Neisseria gonorrhoeae, UniProt Q5F5X2); experiment: crystal structure; type: binding
T1 sequence (Q5F5X2 1-248): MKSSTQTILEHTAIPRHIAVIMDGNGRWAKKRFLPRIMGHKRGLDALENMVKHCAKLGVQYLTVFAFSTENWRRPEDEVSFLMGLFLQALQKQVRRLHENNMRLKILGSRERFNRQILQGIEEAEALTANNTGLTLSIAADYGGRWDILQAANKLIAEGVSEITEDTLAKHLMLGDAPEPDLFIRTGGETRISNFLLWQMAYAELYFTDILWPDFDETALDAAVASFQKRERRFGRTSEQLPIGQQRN

[2] = molecular target: T1, NgUPPS (undecaprenyl diphosphate synthase); experiment: pyrophosphatase-coupled phosphate release, Biomol Green; type: biochemical

Structure (SMILES): O=C(O)c1cn2cc(Cl)ccc2n1 [4R-0623]
- crystal structure (soaking); WAC-MS hit ([1]; region 1, two sites): 9OHJ (4R-0623)

Structure (SMILES): Brc1ccsc1-c1ccn[nH]1 [4W-0801]
- crystal structure (soaking); WAC-MS hit ([1]; region 3 (hydrophobic core)): 9OIV (4W-0801)

Structure (SMILES): O=C(O)c1ccc(Br)cn1 [5Br-P]
- crystal structure (soaking); WAC-MS hit ([1]; region 2): 9OJE (5Br-P)

Structure (SMILES): Cc1ccc(O)c(-c2cc[nH]n2)c1 [BA-0843]
- crystal structure (soaking); WAC-MS hit ([1]; region 3): 9OHP (BA-0843)

Structure (SMILES): Nc1cc(-c2cccc(C(F)(F)F)c2)no1 [DA-0841]
- crystal structure (soaking); WAC-MS hit ([1]; region 2): 9OIY (DA-0841)

Structure (SMILES): Nc1cc(-c2ccc(C(F)(F)F)cc2)no1 [DA-0854]
- crystal structure (soaking); WAC-MS hit ([1]; region 4 (distal end of tunnel)): 9OJ1 (DA-0854)

Structure (SMILES): O=C(O)c1ccc(C(F)(F)F)cn1 [FC-0609]
- crystal structure (soaking); WAC-MS hit ([1]; region 4): 9OJA (FC-0609)

Structure (SMILES): O=C(O)c1cc(C(F)(F)F)ccn1 [FD-0739]
- crystal structure (soaking); WAC-MS hit ([1]; region 2): 9OI6 (FD-0739)

Structure (SMILES): O=C(O)c1ncccc1F [GF-0701]
- crystal structure (soaking); WAC-MS hit ([1]; region 1, two sites): 9OIW (GF-0701)

Structure (SMILES): Clc1ccc2nc(N3CCNCC3)sc2c1 [PS-0394]
- crystal structure (soaking); WAC-MS hit ([1]; region 3, code printed PS-0394 with the PDB id but PS-3094): 9OJB (PS-0394)

Structure (SMILES): O=C(Nc1cccc(Oc2ccc(C(=O)O)c(C(=O)O)c2)c1)c1ccc(-c2ccccc2)cc1 [compound 10, 4-{3-[(biphenyl-4-ylcarbonyl)amino]phenoxy}benzene-1,2-dicarboxylic acid]
- IC50 [2]: 3.4 µM

Continued, values first:

- crystal structure (soaking); WAC-MS hit ([1]; region 1): 9OHO (PS-3756)
Structure (SMILES): NCc1cccc(O)c1 [PS-3756]

- crystal structure (soaking); WAC-MS hit ([1]; region 3): 9OI5 (PS-4845)
Structure (SMILES): Brc1ccc(-c2cc[nH]n2)s1 [PS-4845]

- crystal structure (soaking); WAC-MS hit ([1]; region 1): 9OHB (PS-5485)
Structure (SMILES): OCc1ccccc1Cl [PS-5485]

- crystal structure (soaking); WAC-MS hit ([1]; region 1, two sites): 9OHI (PS-5549)
Structure (SMILES): Cc1nonc1CO [PS-5549]

- crystal structure (soaking); WAC-MS hit ([1]; region 1, two sites): 9OHG (PS-5570)
Structure (SMILES): OCc1cccs1 [PS-5570]
